Measurements published in US20070021509A1, “Phosphate transport inhibitors” (priority 2001, published 2007).

Each compound was assayed on phosphate uptake by rabbit intestinal Brush Border Membrane Vesicles (BBMV) (assay: 33PO4 uptake in rabbit intestinal BBMV (HTS), phosphate transporter inhibition in vitro). Conditions: Table 4, phosphate uptake, read-out: IC50.
Format: biochemical
How it was run: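 BBMV from duodenal mucosa of male New Zealand White rabbits, diluted to about 0.5-2.0 mg/mL protein. Uptake buffers carried 33PO4 at 200,000 CPM/19 μL. Controls: Na uptake buffer (max), plus 100 μM KH2PO4 pH 7.4 (mid), K uptake buffer (min).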

IC50 [µM] | SMILES
101 to 500 | Cc1ccc(NC(=O)Nc2ccc(Br)cc2P(=O)(O)O)cc1[N+](=O)[O-] [Compound 190]
101 to 500 | CC(C)c1cccc(C(C)C)c1NC(=O)Nc1ccc(Br)cc1P(=O)(O)O [Compound 191]
101 to 500 | O=C(Nc1cccc(C(F)(F)F)c1)Nc1ccc(Br)cc1P(=O)(O)O [Compound 192]
101 to 500 | O=C(Nc1cc(Cl)c(Cl)cc1Cl)Nc1ccc(Br)cc1P(=O)(O)O [Compound 193]
101 to 500 | O=C(Nc1ccc(F)c([N+](=O)[O-])c1)Nc1ccc(Br)cc1P(=O)(O)O [Compound 194]
501 to 1000 | O=C(Nc1cccc(Cl)c1)Nc1ccc(Br)cc1P(=O)(O)O [Compound 195]
501 to 1000 | Cc1cccc(C)c1NC(=O)Nc1ccc(Br)cc1P(=O)(O)O [Compound 196]
501 to 1000 | N#Cc1cccc(NC(=O)Nc2ccc(Br)cc2P(=O)(O)O)c1 [Compound 197]
501 to 1000 | O=C(Nc1ccc(Br)cc1P(=O)(O)O)Nc1cccc(C(F)(F)F)c1Cl [Compound 198]
501 to 1000 | CC(=O)c1cccc(NC(=O)Nc2ccc(Br)cc2P(=O)(O)O)c1 [Compound 199]
501 to 1000 | O=C(Nc1ccccc1F)Nc1ccc(Br)cc1P(=O)(O)O [Compound 200]
501 to 1000 | O=C(NCc1ccccc1)Nc1ccc(Br)cc1P(=O)(O)O [Compound 201]
501 to 1000 | O=C(Nc1ccc(C(F)(F)F)cc1)Nc1ccc(Br)cc1P(=O)(O)O [Compound 202]
501 to 1000 | COc1cccc(NC(=O)Nc2ccc(Br)cc2P(=O)(O)O)c1 [Compound 203]
1000 to 1500 | O=C(Nc1ccc(Br)cc1P(=O)(O)O)Nc1c(F)cccc1F [Compound 204]
1000 to 1500 | O=C(Nc1ccccc1)Nc1ccc(Br)cc1P(=O)(O)O [Compound 205]
1000 to 1500 | Cc1cc(C)cc(NC(=O)Nc2ccc(Br)cc2P(=O)(O)O)c1 [Compound 206]
1000 to 1500 | Cc1ccc(NC(=O)Nc2ccc(Br)cc2P(=O)(O)O)cc1 [Compound 207]
1000 to 1500 | CCOC(=O)c1cccc(NC(=O)Nc2ccc(Br)cc2P(=O)(O)O)c1 [Compound 208]
> 1500 | CC(NC(=O)Nc1ccc(Br)cc1P(=O)(O)O)c1cccc2ccccc12 (stereo not drawn) [Compound 209]
> 1500 | CC(C)c1ccc(NC(=O)Nc2ccc(Br)cc2P(=O)(O)O)cc1 [Compound 210]
> 1500 | O=C(Nc1cccc(Br)c1)Nc1ccc(Br)cc1P(=O)(O)O [Compound 211]
> 1500 | CCOc1ccc(NC(=O)Nc2ccc(Br)cc2P(=O)(O)O)cc1 [Compound 212]
> 1500 | O=C(Nc1ccc(Cl)cc1)Nc1ccc(Br)cc1P(=O)(O)O [Compound 213]

Same assay, conditions: Table 5, 100 μM compound

SMILES | % Inhib. at 100 μM [%]
O=C(Nc1cccc(C(F)(F)F)c1)Nc1cccc(C(F)(F)F)c1 [Compound 214] | 100
O=C(Nc1cccc(C(F)(F)F)c1)Nc1cccc(Cl)c1Cl [Compound 215] | 96
O=C(Nc1cccc(C(F)(F)F)c1)Nc1ccc(Cl)c(Cl)c1 [Compound 216] | 95
O=C(Nc1cc(Cl)cc(Cl)c1)Nc1cccc(C(F)(F)F)c1 [Compound 217] | 95
O=C(Nc1cccc(C(F)(F)F)c1)Nc1c(Cl)cccc1Cl [Compound 218] | 93
O=C(Nc1cccc(Cl)c1)Nc1cccc(C(F)(F)F)c1 [Compound 219] | 92
O=C(Nc1cccc(C(F)(F)F)c1)Nc1cc(Cl)ccc1Cl [Compound 220] | 92
O=C(NCc1ccc(Cl)c(Cl)c1)Nc1ccc(Br)cc1P(=O)([O-])[O-].[Na+].[Na+] [Compound 221] | 91
O=C(Nc1cccc(C(F)(F)F)c1)Nc1ccc(F)c([N+](=O)[O-])c1 [Compound 222] | 88
O=C(Nc1cccc(C(F)(F)F)c1)Nc1ccccc1Cl [Compound 223] | 85
O=C(Nc1cccc(C(F)(F)F)c1)Nc1ccc(Cl)cc1Cl [Compound 224] | 85
O=C(Nc1cccc(C(F)(F)F)c1)N1CCc2ccccc21 [Compound 225] | 80
CCOP(=O)(OCC)c1cc(Br)ccc1NC(=O)Nc1cccc(C(F)(F)F)c1 [Compound 226] | 77
O=C(Nc1ccc(Br)cc1)Nc1cccc(C(F)(F)F)c1 [Compound 227] | 75
O=C(Nc1ccc(Cl)cc1)Nc1cccc(C(F)(F)F)c1 [Compound 228] | 74
O=C(Nc1cccc(F)c1)Nc1ccc(Br)cc1P(=O)(O)O [Compound 229] | 73
O=C(Nc1cccc(C(F)(F)F)c1)Nc1ccc(Br)cc1P(=O)(O)O [Compound 230] | 49

Same assay, conditions: Table 6, 100 μM compound

SMILES | % Inhib. at 100 μM [%]
COc1ccc(-c2cc(-c3ccco3)on2)cc1 [Compound 231] | 74
c1ccc(Oc2ccc(-c3cc(-c4ccco4)on3)cc2)cc1 [Compound 232] | 72
c1ccc(Oc2ccc(C3=NOC(c4ccco4)C3)cc2)cc1 (stereo not drawn) [Compound 233] | 68
Oc1ccc(C2=NOC(c3ccc(F)cc3)C2)cc1 (stereo not drawn) [Compound 234] | 62
Fc1ccc(C2CC(c3ccc(Oc4ccccc4)cc3)=NO2)cc1 (stereo not drawn) [Compound 235] | 54
Oc1ccc(-c2cc(-c3ccco3)on2)cc1 [Compound 236] | 41
COc1ccc(C2=NOC(c3ccco3)C2)cc1 (stereo not drawn) [Compound 237] | 40
Cn1nc(-c2cc(Cl)cc(Cl)c2O)cc1-c1ccc(Br)cc1 [Compound 238] | 16

Same assay, conditions: Table 7, phosphate uptake, read-out: IC50

IC50 [µM] | SMILES
101 to 500 | COc1ccc(-c2cc(-c3cccc(F)c3)n(C)n2)cc1 [Compound 239]
101 to 500 | COc1ccc(-c2cc(-c3ccco3)n(C)n2)cc1 [Compound 240]
101 to 500 | Cn1nc(-c2ccc(O)cc2)cc1-c1cccc(F)c1 [Compound 241]
> 1500 | Cn1nc(-c2ccc(O)cc2)cc1-c1ccco1 [Compound 242]
> 1500 | Cn1nc(-c2ccc(Oc3ccccc3)cc2)cc1-c1cccc(F)c1 [Compound 243]
> 1500 | Cn1nc(-c2ccc(Oc3ccccc3)cc2)cc1-c1ccco1 [Compound 244]

Same assay, conditions: Table 8, 100 μM compound

SMILES | % Inhib. at 100 μM [%]
CCOP(=O)(OCC)c1cc(Br)ccc1NC(=O)c1ccc(Br)cc1 [Compound 245] | 67
CCCCOc1ccc(C(=O)Nc2ccc(Br)cc2P(=O)(OCC)OCC)cc1 [Compound 246] | 57
CCCCCCCc1ccc(C(=O)Nc2ccc(Br)cc2P(=O)(OCC)OCC)cc1 [Compound 247] | 53
CCOP(=O)(OCC)c1cc(Br)ccc1NC(=O)c1ccc(OC)c(OC)c1 [Compound 248] | 48

Same assay, conditions: Table 9, 100 μM compound

SMILES | % Inhib. at 100 μM [%]
O=C(/C=C/c1ccc(Br)cc1)c1cc(Cl)cc(Cl)c1O [Compound 249] | 50

Same assay, conditions: Table 10, phosphate uptake, read-out: IC50

SMILES | IC50 [µM]
CCOP(=O)(OCC)c1cc(Br)ccc1NC(=O)c1ccc(OC(F)(F)F)cc1 [Compound 250] | < 50
O=C(Nc1ccc(Br)cc1)c1cc(Br)cc(Br)c1O [Compound 251] | 51 to 100
O=C(Nc1ccc(Cl)c(Cl)c1)c1cc(Cl)cc(Cl)c1O [Compound 252] | 51 to 100
O=C(Nc1ccc(Br)cc1)c1cc(Br)cc(Br)c1O [Compound 253] | 101 to 500
O=C(Nc1ccc(Oc2ccc3ccccc3c2Br)c(Cl)c1)c1cc(Br)cc(Br)c1O [Compound 254] | 101 to 500
O=C(Nc1ccc(Cl)cc1)c1cc(Br)cc(Br)c1O [Compound 255] | 101 to 500
